Results as given in ChEMBL document CHEMBL4622974, “Leveraging an Open Science Drug Discovery Model to Develop CNS-Penetrant ALK2 Inhibitors for the Treatment of Diffuse Intrinsic Pontine Glioma” (J Med Chem, 2020).

How the values were obtained:
[1] = Half life in CB17 SCID mouse at 10 mg/kg, po after 0.25 to 24 hrs by LC/MS/MS method; format: ADME, organism-based; conditions: in vivo
[2] = Toxicity in CB17 SCID mouse assessed as induction of adverse effect at 10 mg/kg, po; format: organism-based; conditions: in vivo
TGF-beta receptor type-1 [3] = target: T1, TGF-beta receptor type-1 (Homo sapiens, UniProt P36897); test: Inhibition of human ALK5 using casein as substrate in presence of [gamma-33P]-ATP by radiometric hotspot assay; format: ADME
T1 sequence (P36897 whole entry): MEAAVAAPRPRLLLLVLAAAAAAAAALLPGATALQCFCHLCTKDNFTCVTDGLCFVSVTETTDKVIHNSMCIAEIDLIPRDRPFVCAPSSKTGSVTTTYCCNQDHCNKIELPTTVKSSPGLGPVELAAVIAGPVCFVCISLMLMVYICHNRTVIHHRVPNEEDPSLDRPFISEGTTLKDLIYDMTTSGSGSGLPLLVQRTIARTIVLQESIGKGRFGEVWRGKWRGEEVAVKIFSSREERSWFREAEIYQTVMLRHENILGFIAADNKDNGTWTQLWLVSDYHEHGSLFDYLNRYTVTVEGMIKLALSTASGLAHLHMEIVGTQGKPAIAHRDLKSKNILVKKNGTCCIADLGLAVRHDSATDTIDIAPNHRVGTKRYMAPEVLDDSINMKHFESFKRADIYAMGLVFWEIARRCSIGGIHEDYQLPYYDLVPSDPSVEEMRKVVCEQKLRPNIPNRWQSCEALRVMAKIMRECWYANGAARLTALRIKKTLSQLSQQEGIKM

[4] = Stability in human liver microsomes assessed as compound remaining at 1 uM incubated for 60 mins by LC/MS analysis; format: ADME, Microsome; conditions: read-out: Stability
[5] = Stability in CD1 mouse liver microsomes assessed as compound remaining at 1 uM incubated for 60 mins by LC/MS analysis; format: ADME, Microsome; conditions: read-out: Stability
[6] = Selectivity ratio of IC50 for human ALK4 to IC50 for human ALK2; format: ADME
[7] = Cmax in CB17 SCID mouse at 10 mg/kg, po after 0.25 to 24 hrs by LC/MS/MS method; format: ADME, organism-based; parameters: dose 10 mg/kg, route oral; conditions: in vivo
[8] = Apparent permeability across basolateral to apical side in human Caco2 cells at 5 uM after 120 mins by LC-MS/MS analysis; format: ADME, cell-based; conditions: Caco-2
[9] = target: Voltage-gated inwardly rectifying potassium channel KCNH2 (Homo sapiens, UniProt Q12809); test: Inhibition of human ERG expressed in HEK293 cells after 5 mins by IonWorks barracuda patch clamp method; format: cell-based
[10] = AUCinfinity in CB17 SCID mouse at 10 mg/kg, po after 0.25 to 24 hrs by LC/MS/MS method; format: ADME, organism-based; parameters: dose 10 mg/kg, time infinity, route oral; conditions: in vivo
[11] = Clearance in CB17 SCID mouse at 2 mg/kg, iv after 0.25 to 24 hrs by LC/MS/MS method; format: ADME, organism-based; conditions: in vivo
Activin receptor type-1 [12] = target: T2, Activin receptor type-1 (Homo sapiens, UniProt Q04771); test: Inhibition of human ALK2 using casein as substrate in presence of [gamma-33P]-ATP by radiometric hotspot assay
T2 sequence (Q04771 whole entry): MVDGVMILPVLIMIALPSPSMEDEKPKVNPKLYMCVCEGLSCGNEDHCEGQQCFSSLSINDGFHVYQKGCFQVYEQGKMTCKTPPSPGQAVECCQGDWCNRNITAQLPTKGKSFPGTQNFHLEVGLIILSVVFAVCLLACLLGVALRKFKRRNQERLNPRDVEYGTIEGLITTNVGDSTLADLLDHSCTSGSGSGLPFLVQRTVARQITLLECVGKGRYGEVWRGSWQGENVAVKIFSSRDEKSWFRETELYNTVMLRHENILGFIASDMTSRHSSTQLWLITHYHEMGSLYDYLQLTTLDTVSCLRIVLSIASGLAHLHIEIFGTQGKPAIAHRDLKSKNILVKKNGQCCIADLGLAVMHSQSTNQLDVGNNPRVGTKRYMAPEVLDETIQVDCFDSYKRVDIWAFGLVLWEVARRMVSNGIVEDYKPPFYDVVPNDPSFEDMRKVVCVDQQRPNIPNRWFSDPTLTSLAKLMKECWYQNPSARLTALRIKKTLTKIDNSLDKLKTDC

[13] = Toxicity in CB17 SCID mouse assessed as induction of adverse effect at 2 mg/kg, iv; format: organism-based; conditions: in vivo
Activin receptor type-1B = target: T3, Activin receptor type-1B (Homo sapiens, UniProt P36896); test: Inhibition of human ALK4 using casein as substrate in presence of [gamma-33P]-ATP by radiometric hotspot assay; format: ADME
T3 sequence (P36896 whole entry): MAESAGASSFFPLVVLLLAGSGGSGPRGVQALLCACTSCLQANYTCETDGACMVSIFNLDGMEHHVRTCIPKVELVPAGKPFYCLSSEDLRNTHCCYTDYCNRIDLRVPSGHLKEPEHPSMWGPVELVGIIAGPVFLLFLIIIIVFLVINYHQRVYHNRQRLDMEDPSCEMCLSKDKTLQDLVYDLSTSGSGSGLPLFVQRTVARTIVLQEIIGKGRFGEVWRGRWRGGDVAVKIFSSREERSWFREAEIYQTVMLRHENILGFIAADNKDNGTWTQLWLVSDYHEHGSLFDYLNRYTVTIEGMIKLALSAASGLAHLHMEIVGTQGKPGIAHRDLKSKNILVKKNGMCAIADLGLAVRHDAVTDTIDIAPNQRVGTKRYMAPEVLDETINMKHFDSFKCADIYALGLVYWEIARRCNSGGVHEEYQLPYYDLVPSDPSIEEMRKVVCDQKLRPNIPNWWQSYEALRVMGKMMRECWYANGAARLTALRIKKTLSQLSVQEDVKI

Activin receptor type-1 [14] = target: T2, Activin receptor type-1; test: Competitive displacement of PBI-6908 from nanoluciferase-fused ALK2 (unknown origin) expressed in HEK293 cells incubated for 2 hrs by NanoBRET NanoGlo substrate based NanoBRET assay; format: cell-based
TGF-beta receptor type-1 [15] = target: T1, TGF-beta receptor type-1; test: Inhibition of recombinant human ALK5 expressed in HEK293 cells transfected with CAGA-luciferase and Renilla luciferase reporter after 24 hrs by dual luciferase reporter assay; format: cell-based
[16] = Apparent permeability across apical to basolateral side in human Caco2 cells at 5 uM after 120 mins by LC-MS/MS analysis; conditions: Caco-2
[17] = Oral bioavailability in CB17 SCID mouse at 10 mg/kg after 0.25 to 24 hrs by LC/MS/MS method; format: ADME, organism-based; conditions: in vivo
[18] = Half life in human liver microsomes at 1 uM incubated for 60 mins by LC/MS analysis; format: ADME, Microsome
[19] = Volume of distribution at steady state in CB17 SCID mouse at 2 mg/kg, iv after 0.25 to 24 hrs by LC/MS/MS method; format: ADME, organism-based; conditions: in vivo, read-out: Vdss
[20] = Half life in CD1 mouse liver microsomes at 1 uM incubated for 60 mins by LC/MS analysis; format: ADME, Microsome
[21] = Efflux ratio of apparent permeability across basolateral to apical over apical to basolateral side in human Caco2 cells at 5 uM incubated for 2 hrs by LC/MS/MS analysis; conditions: Caco-2
[22] = Plasma concentration in NOD/SCID mouse at 25 mg/kg, po measured after 0.5 to 6 hrs; format: ADME, organism-based; conditions: in vivo
[23] = Drug uptake in NOD/SCID mouse at 25 mg/kg, po measured after 0.5 to 6 hrs; format: ADME, organism-based; conditions: in vivo
[24] = Ratio of drug level in brain to plasma in CB17 SCID mouse at 10 mg/kg, po measured at 4 h; format: ADME, organism-based; conditions: brain and plasma, read-out: BPR
[25] = Half life in BALB/c mouse at 5 mg/kg, po by LC-MS/MS analysis; format: ADME, organism-based; conditions: in vivo
[26] = Ratio of drug level in brain to plasma in NOD/SCID mouse at 25 mg/kg, po measured at 2 hr post dose on day 14 by LC-MS/MS analysis; format: ADME, organism-based; conditions: read-out: BPR
[27] = Oral bioavailability in BALB/c mouse at 5 mg/kg by LC-MS/MS analysis; format: ADME, organism-based; conditions: in vivo
[28] = Drug level in NOD/SCID mouse brain at 25 mg/kg, po measured at 2 hr post dose on day 14 by LC-MS/MS analysis; format: ADME, organism-based; conditions: read-out: Drug uptake

Chain of Voltage-gated inwardly rectifying potassium channel KCNH2 (Q12809 whole entry): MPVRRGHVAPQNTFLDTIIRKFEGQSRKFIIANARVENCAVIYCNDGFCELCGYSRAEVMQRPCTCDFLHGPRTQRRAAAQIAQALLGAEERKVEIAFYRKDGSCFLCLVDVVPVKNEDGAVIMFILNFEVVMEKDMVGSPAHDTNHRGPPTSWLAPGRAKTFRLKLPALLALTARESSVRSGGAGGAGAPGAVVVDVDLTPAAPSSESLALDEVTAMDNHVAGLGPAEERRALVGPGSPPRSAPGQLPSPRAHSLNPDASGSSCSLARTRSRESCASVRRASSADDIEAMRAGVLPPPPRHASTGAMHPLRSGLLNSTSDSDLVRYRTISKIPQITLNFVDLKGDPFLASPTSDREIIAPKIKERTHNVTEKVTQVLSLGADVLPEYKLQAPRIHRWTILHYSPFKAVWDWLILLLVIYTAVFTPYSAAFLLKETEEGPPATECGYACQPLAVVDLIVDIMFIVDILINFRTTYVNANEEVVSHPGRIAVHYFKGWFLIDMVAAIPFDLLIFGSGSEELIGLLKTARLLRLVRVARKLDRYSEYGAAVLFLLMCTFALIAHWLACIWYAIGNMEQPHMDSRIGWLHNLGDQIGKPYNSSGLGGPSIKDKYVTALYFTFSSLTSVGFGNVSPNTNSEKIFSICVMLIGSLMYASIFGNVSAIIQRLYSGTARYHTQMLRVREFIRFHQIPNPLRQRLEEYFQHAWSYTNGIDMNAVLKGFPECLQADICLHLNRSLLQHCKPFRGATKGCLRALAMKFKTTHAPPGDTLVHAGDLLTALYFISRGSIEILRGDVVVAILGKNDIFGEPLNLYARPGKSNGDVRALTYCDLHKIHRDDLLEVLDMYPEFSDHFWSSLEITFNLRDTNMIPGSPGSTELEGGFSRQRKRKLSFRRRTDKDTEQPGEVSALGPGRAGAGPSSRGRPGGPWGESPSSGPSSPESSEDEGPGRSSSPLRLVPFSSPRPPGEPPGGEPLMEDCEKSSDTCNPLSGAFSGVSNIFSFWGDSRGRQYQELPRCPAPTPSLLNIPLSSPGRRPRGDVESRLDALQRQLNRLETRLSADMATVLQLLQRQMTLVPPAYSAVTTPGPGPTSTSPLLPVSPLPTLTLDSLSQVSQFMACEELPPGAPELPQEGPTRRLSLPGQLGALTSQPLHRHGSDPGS

| Compound | half-life [1] | Activity [2] | IC50 (TGF-beta receptor type-1 [3]) | remaining at 1 h, 1 µM [4] | remaining at 1 h, 1 µM [5] | Cmax [7] | Papp B→A at 2 h, 5 µM [8] | IC50 [9] | AUC(0-inf) [10] | clearance [11] | IC50 (Activin receptor type-1 [12]) | Activity [13] | IC50 (Activin receptor type-1B) | IC50 (Activin receptor type-1 [14]) | IC50 (TGF-beta receptor type-1 [15]) | Papp A→B at 2 h, 5 µM [16] | bioavailability [17] | half-life at 1 µM [18] | Vd [19] | half-life at 1 µM [20] | other results |
| --- | --- | --- | --- | --- | --- | --- | --- | --- | --- | --- | --- | --- | --- | --- | --- | --- | --- | --- | --- | --- | --- |
| COc1cc(-c2cncc(-c3ccc(N4CCN(S(C)(=O)=O)CC4)cc3)c2C)cc(OC)c1OC | 0.8 h | Non-Toxic | 1980 nM | 83.6% | 100% | 1.43 µM | 33.8 ×10⁻⁶ cm/s | > 50000 nM | 2.97 µM·h | 7.9 mL/min/kg | 29 nM | Non-Toxic | 1130 nM | 59 nM | 6390 nM | 34.5 ×10⁻⁶ cm/s | 7% | > 1 h | 0.48 L/kg | > 1 h | Ratio IC50 [6]: 39; efflux ratio at 2 h, 5 µM [21]: 1 |
| COc1cc(-c2cncc(-c3ccc(OC4CCNCC4)cc3)c2C)cc(OC)c1OC | 7.7 h | Non-Toxic | 2850 nM | 62.1% | 39.3% | 4.71 µM | 9.4 ×10⁻⁶ cm/s | 8100 nM | 65.8 µM·h | 6 mL/min/kg | 6 nM | Non-Toxic | 1360 nM | 31 nM | 1910 nM | 4.1 ×10⁻⁶ cm/s | 96% | > 1 h | 2.23 L/kg | > 1 h | Ratio IC50 [6]: 227; efflux ratio at 2 h, 5 µM [21]: 2.3 |
| COc1cc(-c2cncc(-c3ccc(N4CCNCC4)cc3)c2C)cc(OC)c1OC | – | – | – | – | – | – | – | – | – | – | – | – | – | – | – | – | – | – | – | – | concentration [22]: 9.11 µM |
| COc1cc(-c2cncc(-c3ccc(N4CCNCC4)cc3)c2C)cc(OC)c1OC.CS(=O)(=O)O | – | – | – | – | – | – | – | – | – | – | – | – | – | – | – | – | – | – | – | – | Drug uptake [23]: Active |
| COc1cc(-c2cncc(-c3ccc(C4=CCNCC4)cc3)c2C)cc(OC)c1OC | 6.02 h | Non-Toxic | > 5000 nM | 68% | 73.9% | 6.62 µM | 3.9 ×10⁻⁶ cm/s | 3400 nM | 82.5 µM·h | 3.84 mL/min/kg | 5 nM | Non-Toxic | > 2000 nM | 47 nM | 7530 nM | 2.9 ×10⁻⁶ cm/s | 79% | > 1 h | 1.66 L/kg | > 1 h | Kp at 4 h [24]: 0.43; efflux ratio at 2 h, 5 µM [21]: 1.3 |
| COc1cc(-c2cc(-c3ccc(N4CCNCC4)cc3)cnc2C)cc(OC)c1OC | – | – | – | – | – | – | – | – | – | – | – | – | – | – | – | – | – | – | – | – | half-life [25]: 3.91 h; Kp at 2 h [26]: 0.8; bioavailability [27]: 75%; concentration at 2 h [28]: 10.9 µM |
